What was measured:
[1] = system: EDG2-overexpressing cardiomyocytes; assay: Shortening measurements (contractility) in single isolated cardiomyocytes after Ad-EDG2-GFP gene transfer; format: cell-based, rabbit
Method: (§1) Contractility of infected cardiomyocytes was measured by an electro-optical monitoring system connected to online digitalized assessment of amplitude and velocity of shortening and of relaxation. Transgene-positive cardiomyocytes were identified by co-expression of GFP under fluorescent light. After the contraction amplitude reached stability, increasing concentrations of isoproterenol were applied at constant concentrations of lysophosphatidic acid (LPA; 10^−5 mol/l); or increasing LPA concentrations were added to constant concentrations of isoproterenol (10^−8 mol/l).
(§2) In order to investigate the effects of EDG2 on cardiomyocyte contractility, fractional shortening and velocity of shortening in single, isolated cardiomyocytes from failing hearts after ex vivo gene transfer was measured.
(§3) Single calcium-tolerant ventricular cardiomyocytes were isolated from failing White New Zealand rabbit hearts. Briefly, the hearts were perfused and digested with collagenase. The isolated cardiomyocytes were cultured in modified M199 on laminin-precoated dishes (5–10 μg/cm^2) at a density of 1.5×10^5 cells per cm^2 (at 5% CO2 and 37° C.). For contraction experiments, the cells were infected with adenovirus (multiplicity of infection (moi) 1 pfu/cell) 5 hours after plating. 50–60% of the infected cardiomyocytes expressed the transgene at this titer.

human EDG2 = molecular target: T1, human EDG2 (Homo sapiens, UniProt Q92633); conditions: HEK293 cells expressing the human EDG2 protein; LPA concentration dependent; cited from earlier work
T1 construct: host or cells: HEK293 cells expressing human EDG2

[2] = system: control GFP cardiomyocytes; assay: Shortening measurements (contractility) in single isolated cardiomyocytes after Ad-GFP gene transfer (control); format: cell-based, rabbit; conditions: increasing concentrations of LPA after prestimulation with isoproterenol 10^-8 mol/l; control GFP group; FIG. 2
Method: as §1, §2, §3

T1 sequence (Q92633 whole entry): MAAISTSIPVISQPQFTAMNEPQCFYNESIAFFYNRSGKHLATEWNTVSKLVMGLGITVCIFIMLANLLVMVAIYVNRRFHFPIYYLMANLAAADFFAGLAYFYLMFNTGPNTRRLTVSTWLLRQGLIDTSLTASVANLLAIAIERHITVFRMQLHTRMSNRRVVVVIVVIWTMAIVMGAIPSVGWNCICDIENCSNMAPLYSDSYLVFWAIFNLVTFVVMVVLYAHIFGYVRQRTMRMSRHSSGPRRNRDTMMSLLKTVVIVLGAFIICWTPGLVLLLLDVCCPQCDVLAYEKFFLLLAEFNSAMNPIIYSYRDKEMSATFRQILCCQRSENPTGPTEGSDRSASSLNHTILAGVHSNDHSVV

| Compound | inotropic effect (fractional shortening) ([1]; increasing concentrations of isoproterenol at constant LPA 10^-5 mol/l, EDG2-overexpressing versus control, FIG. 1) | response in serum response element reporter gene assay (human EDG2) | effect on basal contractility of cardiomyocytes ([1]; LPA 10^-5 mol/l, isolated cardiomyocytes from failing hearts) | effect on contractility of cardiomyocytes ([1]; absence of prestimulation with isoproterenol) | inotropic effect (fractional shortening) ([1]; increasing concentrations of LPA after prestimulation with isoproterenol 10^-8 mol/l, FIG. 2) | inotropic effect (fractional shortening) [2] |
| --- | --- | --- | --- | --- | --- | --- |
| CC(C)NCC(O)c1ccc(O)c(O)c1 (stereo not drawn) [isoproterenol] | significantly lower positively inotropic effect | – | – | – | – | – |
| lysophosphatidic acid [LPA] | – | elevated response | does not alter basal contractility | no effect on the contractility | significant negatively inotropic effect | no effect |

— patent US7169612B2, “Use of EDG2 receptor in an animal model of heart failure” (Sanofi-Aventis Deutschland GmbH, priority 2002, dated 2007)
